system: Entamoeba histolytica; assay: Antiamoebic activity against Entamoeba histolytica HM-1:IMSS trophozoite assessed as growth inhibition after 72 hr by microdilution method; format: functional, organism-based; conditions: not given

| Structure (SMILES) | IC50 |
| --- | --- |
| CC(=O)Nc1ccc(S(=O)(=O)n2nc(-c3ccccc3)c3c(N)ncnc32)cc1 | 0.68 µM |
| Nc1ncnc2c1c(-c1ccccc1)nn2S(=O)(=O)c1cc(Cl)ccc1Cl | 2.37 µM |
| Nc1ncnc2c1c(-c1ccccc1)nn2S(=O)(=O)c1ccc([N+](=O)[O-])cc1 | 2.52 µM |
| Nc1ncnc2c1c(-c1ccccc1)nn2S(=O)(=O)c1ccccc1 | 4.24 µM |
| CS(=O)(=O)n1nc(-c2ccccc2)c2c(N)ncnc21 | 5.15 µM |
| Cc1ccc(S(=O)(=O)n2nc(-c3ccccc3)c3c(N)ncnc32)cc1 | 0.57 µM |
| Nc1ncnc2c1c(-c1ccccc1)nn2S(=O)(=O)c1ccc2ccccc2c1 | 3.11 µM |
| Nc1ncnc2c1c(-c1ccccc1)nn2S(=O)(=O)c1ccc(Cl)cc1 | 3.23 µM |
| Cc1ccc(-c2cc(-c3cccc(-c4cc(-c5ccc(C)cc5)nc(N5CCCC5)n4)c3)nc(N3CCCC3)n2)cc1 | 0.16 µM |

system: MCF7; assay: Cytotoxicity against Homo sapiens (human) MCF-7 cells assessed as decrease in number of viable cells after 48 hr by MTT assay; format: ADME, cell-based; conditions: MCF7, 48 h

| Structure (SMILES) | IC50 |
| --- | --- |
| Cc1ncc([N+](=O)[O-])n1CCO [METRONIDAZOLE] | > 250 µM |
| CC(=O)Nc1ccc(S(=O)(=O)n2nc(-c3ccccc3)c3c(N)ncnc32)cc1 | > 250 µM |
| Cc1ccc(S(=O)(=O)n2nc(-c3ccccc3)c3c(N)ncnc32)cc1 | > 250 µM |

Source: ChEMBL document CHEMBL3045953, “Pyrazolo[3,4-d]pyrimidine analogues: synthesis, characterization and their in vitro antiamoebic activity” (Med Chem Res, 2013)
